As usually defined, the IC50 is the concentration that inhibits the measured activity by half. The MIC is the lowest concentration that inhibits growth of the organism.

One assay relates to A549. As to the kind of experiment: Antiproliferative activity against human A549 cells assessed as inhibition of cell growth incubated for 72 hrs by CCK-8 assay. Type of assay: functional, cell-based. To be noted: A549, 72 h. On the technique in general: Tetrazolium dyes change colour on reduction, which living cells bring about.
For a further assay, the system named is NCI-H1299. The assay is described as follows: Antiproliferative activity against human NCI-H1299 cells assessed as inhibition of cell growth incubated for 72 hrs by CCK-8 assay. The assay is classed as functional, cell-based. The conditions noted are these: NCI-H1299, 72 h.
Assay [1] has as its system SW480. As to the kind of experiment: Antiproliferative activity against human SW480 cells assessed as inhibition of cell growth incubated for 72 hrs by CCK-8 assay. To be noted: SW480, 72 h. The assay is classed as functional, cell-based.
In a further assay the test system is SW1990. As to the kind of experiment: Antiproliferative activity against human SW1990 cells assessed as inhibition of cell growth incubated for 72 hrs by CCK-8 assay. The assay is classed as functional, cell-based. To be noted: SW1990, 72 h.
A further assay relates to Staphylococcus aureus. The assay is described as follows: Antibacterial activity against Staphylococcus aureus ATCC 25923 assessed as inhibition of bacterial growth incubated for 24 hrs by microtiter plate reader analysis. The assay is classed as functional.
Assay [2] has as its system Staphylococcus epidermidis. The assay is described as follows: Antibacterial activity against Staphylococcus epidermidis ATCC 14990 assessed as inhibition of bacterial growth incubated for 24 hrs by microtiter plate reader analysis. The assay is classed as functional.
In a further assay the test system is Pseudomonas aeruginosa. The assay is described as follows: Antibacterial activity against Pseudomonas aeruginosa ATCC 47085 assessed as inhibition of bacterial growth incubated for 24 hrs by microtiter plate reader analysis. Type of assay: functional.
Assay [3] deals with SW480. As to the kind of experiment: Inhibition of colony formation in human SW480 cells assessed as reduction in number of clonogenic cells at 0 to 2.5 uM incubated for 24 hrs followed by replacement with fresh medium and measured after 24 hrs by crystal violet staining based analysis. To be noted: dose 0-2.5 µM. The assay is classed as functional, cell-based.
Assay [4] deals with SW480. As to the kind of experiment: Induction of apoptosis in human SW480 cells assessed as increase in annexin V/PI positive cells incubated for 24 hrs by annexin V-FITC/PI staining based flow cytometry analysis. The assay is classed as functional, cell-based. To be noted: dose 0-2.5 µM. Background: A flow cytometer gives signals particle by particle.

≈ marks a conversion by molar mass, not a printed value. Calls of active or inactive are those of the source. The rule behind the calls is not given here.

For `CC[C@@](C)(NC(=O)[C@H](C)NC(=O)[C@H](CO)NC(=O)C(C)(C)NC(C)=O)C(=O)N[C@](C)(CC)C(=O)N[C@@H](CCC(N)=O)C(=O)N[C@](C)(CC)C(=O)N[C@H](C(=O)NC(C)(C)C(=O)NCC(=O)N[C@@H](CC(C)C)C(=O)NC(C)(C)C(=O)N1CCC[C@H]1C(=O)N[C@@H](CC(C)C)C(=O)NC(C)(C)C(=O)NC(C)(C)C(=O)N[C@@H](CCC(N)=O)C(=O)N[C@H](CO)Cc1ccccc1)C(C)C`, the IC50 in the assay with A549 came to 2600 nM; with NCI-H1299, 3200 nM; in the assay on SW480 [1] it was 1100 nM; in the assay with SW1990 it was 1100 nM. For the same compound, the MIC in the assay on Staphylococcus aureus is 23 µg/mL (≈ 12.7 µM); in [2] it was 90 µg/mL (≈ 49.7 µM); with Pseudomonas aeruginosa, > 180 µg/mL.

As to `O=C(N[C@H](CO)[C@H](O)c1ccc([N+](=O)[O-])cc1)C(Cl)Cl` [CHLORAMPHENICOL], the MIC is 3.1 µg/mL (≈ 9.59 µM) with Staphylococcus aureus, 1.6 µg/mL (≈ 4.95 µM) in [2] and > 180 µg/mL in the assay on Pseudomonas aeruginosa.

Consider `CC[C@@](C)(NC(=O)C(C)(C)NC(=O)[C@H](C)NC(=O)[C@H](C)NC(=O)C(C)(C)NC(C)=O)C(=O)N[C@@H](CCC(N)=O)C(=O)NC(C)(C)C(=O)N[C@H](C(=O)NC(C)(C)C(=O)NCC(=O)N[C@@H](CC(C)C)C(=O)NC(C)(C)C(=O)N1CCC[C@H]1C(=O)N[C@@H](CC(C)C)C(=O)NC(C)(C)C(=O)NC(C)(C)C(=O)N[C@@H](CCC(N)=O)C(=O)N[C@H](CO)Cc1c[nH]c2ccccc12)C(C)C`, for which the IC50 in the assay with A549 was 2500 nM; with NCI-H1299 it was 3400 nM; in the assay with SW480 [1], 880 nM; in the assay with SW1990, 1300 nM. Also, the MIC with Staphylococcus aureus was 23 µg/mL (≈ 12.7 µM); in [2], 90 µg/mL (≈ 49.9 µM); with Pseudomonas aeruginosa, > 180 µg/mL.

For `CC[C@@](C)(NC(=O)[C@H](C)NC(=O)[C@H](C)NC(=O)C(C)(C)NC(C)=O)C(=O)N[C@](C)(CC)C(=O)N[C@@H](CCC(N)=O)C(=O)NC(C)(C)C(=O)N[C@H](C(=O)NC(C)(C)C(=O)NCC(=O)N[C@@H](CC(C)C)C(=O)NC(C)(C)C(=O)N1CCC[C@H]1C(=O)N[C@@H](CC(C)C)C(=O)NC(C)(C)C(=O)NC(C)(C)C(=O)N[C@@H](CCC(N)=O)C(=O)N[C@H](CO)Cc1ccccc1)C(C)C`, the IC50 was 1300 nM in the assay with A549, 1300 nM in the assay on NCI-H1299, 460 nM with SW480 [1] and 460 nM with SW1990. For the same compound, the MIC with Staphylococcus aureus is 45 µg/mL (≈ 25.3 µM); in assay [2], > 180 µg/mL; in the assay with Pseudomonas aeruginosa, > 180 µg/mL. Besides, the inhibition entry in the assay on SW480 [3] was “Active”. In addition, the result in the assay with SW480 [4] was Active.

Turning to `CC[C@@](C)(NC(=O)C(C)(C)NC(=O)[C@H](C)NC(=O)[C@H](C)NC(=O)C(C)(C)NC(C)=O)C(=O)N[C@@H](CCC(N)=O)C(=O)NC(C)(C)C(=O)N[C@H](C(=O)NC(C)(C)C(=O)NCC(=O)N[C@@H](CC(C)C)C(=O)NC(C)(C)C(=O)N1CCC[C@H]1C(=O)N[C@@H](CC(C)C)C(=O)NC(C)(C)C(=O)NC(C)(C)C(=O)N[C@@H](CCC(N)=O)C(=O)N[C@H](CO)Cc1ccccc1)C(C)C`, the IC50 in the assay on A549 is 2700 nM; with NCI-H1299, 4700 nM; in the assay with SW480 [1] it was 900 nM; in the assay on SW1990 it was 900 nM. Besides, the MIC with Staphylococcus aureus is 45 µg/mL (≈ 25.5 µM); in [2] it was > 180 µg/mL; with Pseudomonas aeruginosa it was > 180 µg/mL.

Consider `CC[C@@H](C)[C@H](NC(=O)[C@@](C)(CC)NC(=O)[C@H](CCC(N)=O)NC(=O)[C@@](C)(CC)NC(=O)[C@@](C)(CC)NC(=O)[C@H](C)NC(=O)[C@H](CO)NC(=O)C(C)(C)NC(C)=O)C(=O)NC(C)(C)C(=O)NCC(=O)N[C@@H](CC(C)C)C(=O)NC(C)(C)C(=O)N1CCC[C@H]1C(=O)N[C@@H](CC(C)C)C(=O)NC(C)(C)C(=O)NC(C)(C)C(=O)N[C@@H](CCC(N)=O)C(=O)N[C@H](CO)Cc1ccccc1`, for which the IC50 was found to be 2800 nM in the assay with A549, 2900 nM in the assay with NCI-H1299, 960 nM in the assay on SW480 [1] and 960 nM with SW1990. The figures for the MIC (in the assay with Staphylococcus aureus; in assay [2]; with Pseudomonas aeruginosa) were 45 µg/mL (≈ 24.7 µM), > 180 µg/mL and > 180 µg/mL, respectively.

With `CC[C@@](C)(NC(=O)[C@H](CCC(N)=O)NC(=O)[C@@](C)(CC)NC(=O)C(C)(C)NC(=O)[C@H](C)NC(=O)[C@H](C)NC(=O)C(C)(C)NC(C)=O)C(=O)N[C@H](C(=O)NC(C)(C)C(=O)NCC(=O)N[C@@H](CC(C)C)C(=O)NC(C)(C)C(=O)N1CCC[C@H]1C(=O)N[C@@H](CC(C)C)C(=O)NC(C)(C)C(=O)NC(C)(C)C(=O)N[C@@H](CCC(N)=O)C(=O)N[C@H](CO)Cc1ccccc1)C(C)C`, the IC50 in the assay with A549 amounted to 2800 nM; with NCI-H1299, 4000 nM; in the assay on SW480 [1], 1200 nM; in the assay on SW1990, 1200 nM. Besides, the MIC is 23 µg/mL (≈ 12.9 µM) in the assay on Staphylococcus aureus, 90 µg/mL (≈ 50.6 µM) in assay [2] and > 180 µg/mL in the assay with Pseudomonas aeruginosa.

`CC[C@@](C)(NC(=O)[C@H](C)NC(=O)[C@H](C)NC(=O)C(C)(C)NC(C)=O)C(=O)N[C@](C)(CC)C(=O)N[C@@H](CCC(N)=O)C(=O)N[C@](C)(CC)C(=O)N[C@H](C(=O)NC(C)(C)C(=O)NCC(=O)N[C@@H](CC(C)C)C(=O)NC(C)(C)C(=O)N1CCC[C@H]1C(=O)N[C@@H](CC(C)C)C(=O)NC(C)(C)C(=O)NC(C)(C)C(=O)N[C@@H](CCC(N)=O)C(=O)N[C@H](CO)Cc1ccccc1)C(C)C`: the concentration for half-maximal inhibition (IC50) in the assay on A549 worked out at 2700 nM; in the assay with NCI-H1299, 3000 nM; in the assay with SW480 [1], 1500 nM; in the assay on SW1990 it was 1500 nM. Also, the values for the MIC (in the assay with Staphylococcus aureus; in assay [2]; with Pseudomonas aeruginosa) were 23 µg/mL (≈ 12.8 µM), > 180 µg/mL and > 180 µg/mL, respectively.

For the origin of these results see ChEMBL document CHEMBL5252630, “18-Residue Peptaibols Produced by the Sponge-Derived Trichoderma sp. GXIMD 01001” (J Nat Prod, 2023).
